# According to article PMC11003450, “Structure-property relationships of fluorinated carboxylic acid bioisosteres” (Bioorganic & medicinal chemistry letters, 2023):
# Where two headings read alike, the source gives them in different places.
# Legend:
# [1] = PAMPA (parallel artificial membrane permeability assay, ran by Analiza); assay type: in vitro ADME; conditions: for Papp: PAMPA
# Text: In this work, in order to compare the properties of fluorinated carboxylic acid surrogates with those of other commonly used nonfluorinated bioisosteres, we present the design and synthesis of a focused set of matched molecular pairs (MMPs), which include examples of substituted alcohols and phenols featuring one or more fluorine atoms, and the characterization of these compounds for key physicochemical properties such as acidity (pKa), lipophilicity (logD7.4 and permeability (logPapp) in a parallel artificial membrane permeability assay (PAMPA). The data presented allow for an assessment of the impact of incorporation of fluorine on the physicochemical properties of carboxylic acid surrogates.
# [2] = logD7.4 by potentiometric titration (Sirius T3); conditions: n-octanol/aqueous buffer
# [3] = pKa by potentiometric titration (Sirius T3)
# [4] = supplement csv; previously described derivatives A-Y; ref [3]-[5]; cited from earlier work
# [5] = supplement csv; previously described phenylpropionic acid derivatives A-Y; ref [3]-[5]; cited from earlier work
# [6] = class by Pe, read-out: PAMPA Permeability
# [7] = pH 7.4, logD7.4, n-octanol / aqueous buffer pH 7.4, Table 1
# [8] = pH 7.4, logD7.4, supplement csv, compounds 1, 2, 3-10
# [9] = pKa (anilinium/aniline), anilinium/aniline pKa, Table 1
# [10] = pKa, acidic group (carboxylic acid, alcohol or phenol), Table 1
# [11] = difference between experimental and calculated pKa, experimental vs ChemAxon
# [12] = pKa (anilinium/aniline), supplement csv, first value of cell, anilinium/aniline
# [13] = read-out: PAMPA Pe (effective permeability)
Compound,pKa [4],logD7.4 [5],further results
O=C(O)CCc1ccccc1 [Compound 1],,,"Papp [1, 6]: > 1.5 ×10⁻⁶ cm/s"
Nc1ccc(CCC(=O)O)cc1 [Compound 2],,,"logD [2, 7]: -2.13; logD [2, 8]: -2.13; pKa [3, 9]: 5.17; pKa [3, 10]: 4.12; PAMPA % retention (membrane retention) [1]: 0.05%; Papp [1, 6]: < 1.5 ×10⁻⁶ cm/s"
Nc1ccc(CCC(O)(C(F)(F)F)C(F)(F)F)cc1 [Compound 3],,,"logD [2, 7]: 3.04; logD [2, 8]: 3.14; pKa [3, 11]: 1 to 1.7; pKa [3, 9]: 4.06; pKa [3, 12]: 4.88; pKa [3, 10]: 7.96; pKa ([3]; pKa, supplement csv, acidic group, compounds 1, 2, 3-10): 9.38; PAMPA % retention (membrane retention) [1]: 0.171%; Papp [1, 6]: > 1.5 ×10⁻⁶ cm/s; Papp [1, 13]: 12 ×10⁻⁶ cm/s"
Nc1ccc(CCC(O)(C(F)F)C(F)F)cc1 [Compound 4],,,"logD [2, 7]: 1.46; logD [2, 8]: 1.46; pKa [3, 11]: 1 to 1.7; pKa [3, 9]: 4.79; pKa [3, 10]: > 12; PAMPA % retention (membrane retention) [1]: 0.02%; Papp [1, 6]: > 1.5 ×10⁻⁶ cm/s; Papp [1, 13]: 10.1 ×10⁻⁶ cm/s"
Nc1ccc(CCC(O)C(F)(F)F)cc1 (centres unmarked) [Compound 5],,,"logD [2, 7]: 1.83; logD [2, 8]: 1.83; pKa [3, 9]: 4.72; pKa [3, 12]: 4.9; pKa [3, 10]: 11.7; Papp [1, 6]: > 1.5 ×10⁻⁶ cm/s; Papp [1, 13]: 11.7 ×10⁻⁶ cm/s"
Nc1ccc(CCC(O)C(F)F)cc1 (centres unmarked) [Compound 6],,,"logD [2, 7]: 0.92; logD [2, 8]: 0.92; pKa [3, 9]: 4.87; pKa [3, 10]: > 12; PAMPA % retention (membrane retention) [1]: 0.015%; Papp [1, 6]: > 1.5 ×10⁻⁶ cm/s; Papp [1, 13]: 10.2 ×10⁻⁶ cm/s"
Nc1ccc(Cc2cccc(O)c2C(F)(F)F)cc1 [Compound 7],,,"logD [2, 7]: 3.17; logD [2, 8]: 3.17; pKa [3, 9]: 4.69; pKa [3, 10]: 8.85; PAMPA % retention (membrane retention) [1]: 0.195%; Papp [1, 6]: > 1.5 ×10⁻⁶ cm/s; Papp [1, 13]: 13.8 ×10⁻⁶ cm/s"
Nc1ccc(Cc2cccc(O)c2OC(F)(F)F)cc1 [Compound 8],,,"logD [2, 7]: 2.29; logD [2, 8]: 2.29; pKa [3, 9]: 4.58; pKa [3, 10]: 9.67; PAMPA % retention (membrane retention) [1]: 0.36%; Papp [1, 6]: > 1.5 ×10⁻⁶ cm/s; Papp [1, 13]: 8.63 ×10⁻⁶ cm/s"
Nc1ccc(Cc2cccc(O)c2SC(F)(F)F)cc1 [Compound 9],,,"logD [2, 7]: 2.72; logD [2, 8]: 2.72; pKa [3, 9]: 4.24; pKa [3, 10]: 9.51; Papp [1, 6]: > 1.5 ×10⁻⁶ cm/s; Papp [1, 13]: 7.28 ×10⁻⁶ cm/s"
Nc1ccc(Cc2cccc(O)c2[S+]([O-])C(F)(F)F)cc1 (centres unmarked) [Compound 10],,,"logD [2, 7]: 1.96; logD [2, 8]: 2; pKa [3, 9]: 4.21; pKa [3, 10]: 7.93; PAMPA % retention (membrane retention) [1]: 0.24%; Papp [1, 6]: > 1.5 ×10⁻⁶ cm/s; Papp [1, 13]: 10.5 ×10⁻⁶ cm/s"
Oc1cccc(Cc2ccccc2)c1C(F)(F)F [Compound 32],,,"logD [2, 7]: 4.29; pKa ([3]; difference in Δ pKa between 32 and 7, Δ = isostere minus corresponding -COOH, 32 vs matched pair 7): 0.46; pKa [3, 10]: 8.91"
O=C(CCc1ccccc1)NO [Compound A1],8.18,,
CC(=O)N(O)CCc1ccccc1 [Compound A2],8.83,,
CONC(=O)CCc1ccccc1 [Compound B1],9.47,,
CC(=O)NOCCc1ccccc1 [Compound B2],9.58,,
NS(=O)(=O)CCc1ccccc1 [Compound G1],10.04,,
CN(C)S(=O)(=O)NC(=O)CCc1ccccc1 [Compound H2],5.79,0.12,
CC1(NS(=O)(=O)CCc2ccccc2)COC1 [Compound H5],10.45,1.58,
CC(=O)NC1(CCc2ccccc2)CS(=O)(=O)C1 [Compound H6],>12,1.18,
O=S(=O)(NC1(CCc2ccccc2)COC1)c1ccccc1 [Compound H8],10.29,2.76,

Compound,pKa [4],logD7.4 [5],further results
CN(C)S(=O)(=O)NC1(CCc2ccccc2)COC1 [Compound H9],11.02,1.96,
CS(=O)(=O)NC1(CCc2ccccc2)CSC1 [Compound H10],10.45,2.44,
O=S(=O)(NC1(CCc2ccccc2)CSC1)c1ccccc1 [Compound H11],>12,2.96,
CN(C)S(=O)(=O)NC1(CCc2ccccc2)CSC1 [Compound H12],11.93,2.83,
CS(=O)(=O)NC1(CCc2ccccc2)C[S+]([O-])C1 (centres unmarked) [Compound H13],9.87,0.87,
O=S(=O)(NC1(CCc2ccccc2)C[S+]([O-])C1)c1ccccc1 (centres unmarked) [Compound H14],,0.76,
CN(C)S(=O)(=O)NC1(CCc2ccccc2)C[S+]([O-])C1 (centres unmarked) [Compound H15],10.33,1.45,
CS(=O)(=O)NC1(CCc2ccccc2)CS(=O)(=O)C1 [Compound H16],9.44,1.03,
O=S1(=O)CC(CCc2ccccc2)(NS(=O)(=O)c2ccccc2)C1 [Compound H17],10.22,1.89,
CN(C)S(=O)(=O)NC1(CCc2ccccc2)CS(=O)(=O)C1 [Compound H18],9.58,1.82,
CS(=O)(=O)Nc1cc(-c2ccccc2)on1 [Compound H19],5.22,-0.42,
O=S(=O)(Nc1cc(-c2ccccc2)on1)c1ccccc1 [Compound H20],6.62,0.99,
CN(C)S(=O)(=O)Nc1cc(-c2ccccc2)on1 [Compound H21],5.62,0.42,
CS(=O)(=O)Nc1cn(-c2ccccc2)nn1 [Compound H22],6.34,0.06,
O=S(=O)(Nc1cn(-c2ccccc2)nn1)c1ccccc1 [Compound H23],5.93,1.06,
CN(C)S(=O)(=O)Nc1cn(-c2ccccc2)nn1 [Compound H24],6.42,0.69,
O=C1C=C(O)CC1Cc1ccccc1 (centres unmarked) [Compound T1],4.01,-0.7,
CC1=C(O)C(Cc2ccccc2)CC1=O (centres unmarked) [Compound T2],4.47,-0.33,
O=C1CCC(O)=C1Cc1ccccc1 [Compound T3],4.44,-0.6,
O=C1CCC(Cc2ccccc2)=C1O [Compound U1],8.88,,

Compound,pKa [4],logD7.4 [5],further results
O=C1CC(c2ccccc2)C=C1O (centres unmarked) [Compound U2],8.28,,
Oc1c(F)cc(Cc2ccccc2)cc1F [Compound W1],7.19,,
Oc1c(F)ccc(Cc2ccccc2)c1F [Compound W2],7.05,,
Oc1ccccc1SCc1ccccc1 [Compound W3],9.06,3.78,
[O-][S+](Cc1ccccc1)c1ccccc1O (centres unmarked) [Compound W4],7.7,,
O=S(=O)(Cc1ccccc1)c1ccccc1O [Compound W5],7.12,,
OC1(CCc2ccccc2)CSC1 [Compound X1],>12,,
[O-][S+]1CC(O)(CCc2ccccc2)C1 (centres unmarked) [Compound X2],>12,,
O=[PH](O)CCc1ccccc1 [D],1.98,,
O=S(O)CCc1ccccc1 [F],2.1,,
CS(=O)(=O)NC(=O)NCc1ccccc1 [I],5.04,-1.19,
c1ccc(CCc2nnn[nH]2)cc1 [K],5.09,-0.36,
O=C1NC(=O)C(Cc2ccccc2)S1 (centres unmarked) [L],6.19,,
O=C1NC(=O)C(Cc2ccccc2)O1 (centres unmarked) [M],5.86,,
O=c1[nH]c(CCc2ccccc2)no1 [N],5.73,,
O=c1[nH]c(CCc2ccccc2)ns1 [O],6.5,,
S=c1[nH]c(CCc2ccccc2)no1 [Q],3.58,,
Oc1cc(Cc2ccccc2)on1 [R],5.36,,
O=C1CC(=O)C(Cc2ccccc2)N1 (centres unmarked) [S],6.08,,
OC1(CCc2ccccc2)COC1 [Y],>12,,
